Test results published in patent US10010585B2, “Methods of treating vestibular schwannoma and reducing hearing or neurite loss caused by vestibular schwannoma” (Massachusetts Eye and Ear Infirmary, priority 2014, dated 2018).

How the values were obtained:
[1] = system: primary VS cells; test: BrdU proliferation assay in primary VS cultures; assay type: cell-based, human; details: for proliferation, of the NT cells / proliferation, of the non-treated cells: 48 hours
Method: Proliferation rate of 12 VS cultures was assessed and correlated with the tumor volume in the latest gadolinium enhanced T1-weighted MRI scan prior to surgical resection, and with tumor growth in vivo, measured as changes in the tumor's volume over time calculated from serial MRI scans. Tumor growth was standardized by dividing the growth rate by the initial tumor volume. Separate analyses were performed for solid tumors, which generally account for approximately 96% of VSs (Charabi et al., 1994), versus all studied tumors, which included 4 out of 13 total tumors with a visible cystic component, because cystic components could misrepresent true tumor volume (Charabi et al., 1994). To determine the level of cell proliferation in the cultures, Bromodeoxyuridine (BrdU) was added to the cells at a concentration of 10 μg/ml 20 hours before the cells were fixed. The cells were kept in the dark after the addition of BrdU Immunofluorescence protocol was followed as described under ‘Immunofluorescence,’ and cell and nuclear membranes were permeablized by incubation in 1% Triton-X for 10 minutes and by incubation in 2N Hydrochloric acid for 20 minutes, respectively, after fixation. Primary antibody against BrdU (AbD Serotec, NC, 1:200) and anti-rat IgG (Life Technologies, NY, 1:1000) were used. BrdU- and Hoechst-stained nuclei were counted in 3-5 fields and the ratio of BrdU positive to Hoechst positive nuclei was used to determine the proliferation rate in vitro. […]
(§1) Cultured human primary VS cells, primary SCs and HEI-193 cells were treated with NF-κB inhibitors BAY11-7082 (BAY11) or curcumin for 48 hours (Santa Cruz Biotechnology). BAY11 or curcumin, diluted in 100% DMSO, were mixed to the accurate concentrations in warmed media and applied to the cultures (with DMSO concentration in media being 1% maximum), alongside a no-treatment control receiving media alone with appropriate corresponding DMSO levels. Experiments were performed in media fortified with antibiotics and serum (same formulation as described in Example 1 for culturing cells).
(§2) After 48 hours of treatment, primary VS and Schwann cultures were fixed for BrdU staining, to visualize proliferation, or TUNEL staining, to visualize cell death. The same methodology as described in Example 1 was utilized. Cleaved caspase 3 staining, another apoptosis marker to reinforce findings using TUNEL, was conducted using an antibody against cleaved caspase 3 following the ‘immunofluorescence’ protocol outlined in Example 1.
(§3) The cultures were incubated with the drugs for 48 hours. To label proliferating cells, BrdU was added 20 hours before fixation. pH was measured in the media after drug addition to ensure no significant deviations.
(§4) After 48 hours of treatment with salicylates, primary VS and SC cultures were fixed for BrdU staining, to visualize proliferation, or TUNEL staining, to visualize cell death. The same methodology as described in Example 1 was utilized.
To understand cross-talk between HGF and VEGF-A pathway, cultured VS cells were incubated with Life Technologies silencer select siRNAs targeting VEGFA (s461) or MET (s8700). To understand whether HGF signaling contributed to VS proliferation, cultured VS cells were treated with MET inhibitor SU11274 (Sigma-Aldrich, MO, #S9820). Seventy-two hours after siRNA treatment or 12 hours after treatment with SU11274 (2 μM), cells were incubated with 10 μg/mL BrdU (Life Technologies, NY, # B23151) for 20 hours before fixation.

[2] = system: primary VS cells; test: TUNEL cell death assay in primary VS cultures; assay type: cell-based, human; details: 48 hours
Method: Rate of apoptosis in 6 VS cultures was assessed and correlated with tumor growth in vivo and tumor volume. […] Apoptosis was measured using terminal deoxynucleotidyl transferase dUTP nick end labeling (TUNEL, Roche Applied Sciences, NY) following manufacturer's instructions. Briefly, immunofluorescence protocol was followed as described under ‘Immunofluorescence,’ until fixations, then the cells were washed with PBS thrice and incubated in 1% Triton-X for 10 minutes on shaker. The cells were washed with PBS once and incubated in TUNEL mix for 1 hour at 37° C., then for 30 minutes at RT on shaker. The cells were then incubated in rhodamine phalloidin (Life Technologies, NY, 1:40) and Hoechst stain for 20 minutes, washed with PBS thrice and mounted onto slides for imaging. TUNEL and Hoechst stained nuclei were counted in >3 fields and the ratio of TUNEL positive to Hoechst positive nuclei was used to determine apoptosis rate in vitro. A positive control of 10 minutes-DNAse (Roche Applied Sciences, NY) treatment prior to TUNEL labeling was utilized.
(§5) For siRNA treatment, cultured primary VS cells or HEI-193 cells were placed in antibiotic and serum free media overnight. The next day, the cells were incubated with Life Technologies siRNAs targeting NF-κB genes RELA and NF-κB1, with control cells being treated with vehicle only (Lipofectamine RNAiMax), for 5 days. Some cultures were also incubated with a fluorescent random Oligo (Life Technologies) along with vehicle to assess transfection efficiency. siRNA experiments were performed in antibiotic and serum free media.
BAY11 or curcumin, diluted in 100% DMSO, were mixed to the accurate concentrations in warmed media and applied to the cultures (with DMSO concentration in media being 1% maximum), alongside a no-treatment control receiving media alone with appropriate corresponding DMSO levels.
After 48 hours of treatment, primary VS and Schwann cultures were fixed for BrdU staining, to visualize proliferation, or TUNEL staining, to visualize cell death.
After 48 hours of treatment with salicylates, primary VS and SC cultures were fixed for BrdU staining, to visualize proliferation, or TUNEL staining, to visualize cell death.

[3] = system: primary SCs; test: BrdU proliferation assay in primary Schwann cell cultures; assay type: cell-based, human; details: 48 hours
Method: (§6) Proliferation rate of 12 VS cultures was assessed and correlated with the tumor volume in the latest gadolinium enhanced T1-weighted MRI scan prior to surgical resection, and with tumor growth in vivo, measured as changes in the tumor's volume over time calculated from serial MRI scans. Tumor growth was standardized by dividing the growth rate by the initial tumor volume. Separate analyses were performed for solid tumors, which generally account for approximately 96% of VSs (Charabi et al., 1994), versus all studied tumors, which included 4 out of 13 total tumors with a visible cystic component, because cystic components could misrepresent true tumor volume (Charabi et al., 1994). To determine the level of cell proliferation in the cultures, Bromodeoxyuridine (BrdU) was added to the cells at a concentration of 10 μg/ml 20 hours before the cells were fixed. The cells were kept in the dark after the addition of BrdU Immunofluorescence protocol was followed as described under ‘Immunofluorescence,’ and cell and nuclear membranes were permeablized by incubation in 1% Triton-X for 10 minutes and by incubation in 2N Hydrochloric acid for 20 minutes, respectively, after fixation. Primary antibody against BrdU (AbD Serotec, NC, 1:200) and anti-rat IgG (Life Technologies, NY, 1:1000) were used. BrdU- and Hoechst-stained nuclei were counted in 3-5 fields and the ratio of BrdU positive to Hoechst positive nuclei was used to determine the proliferation rate in vitro.
as §1, §2, §3, §4

[4] = system: primary SCs; test: TUNEL cell death assay in primary Schwann cell cultures; assay type: cell-based, human; details: 48 hours
Method: (§7) Rate of apoptosis in 6 VS cultures was assessed and correlated with tumor growth in vivo and tumor volume. Two out of the six VS had cystic components. Apoptosis was measured using terminal deoxynucleotidyl transferase dUTP nick end labeling (TUNEL, Roche Applied Sciences, NY) following manufacturer's instructions. Briefly, immunofluorescence protocol was followed as described under ‘Immunofluorescence,’ until fixations, then the cells were washed with PBS thrice and incubated in 1% Triton-X for 10 minutes on shaker. The cells were washed with PBS once and incubated in TUNEL mix for 1 hour at 37° C., then for 30 minutes at RT on shaker. The cells were then incubated in rhodamine phalloidin (Life Technologies, NY, 1:40) and Hoechst stain for 20 minutes, washed with PBS thrice and mounted onto slides for imaging. TUNEL and Hoechst stained nuclei were counted in >3 fields and the ratio of TUNEL positive to Hoechst positive nuclei was used to determine apoptosis rate in vitro. A positive control of 10 minutes-DNAse (Roche Applied Sciences, NY) treatment prior to TUNEL labeling was utilized.
as §1, §2

[5] = system: HEI-193 NF2 VS cell line; test: BrdU proliferation assay in HEI-193 cells; assay type: cell-based, human; details: for normalized proliferation rate: 48 hours
Method: as §6
(§8) The same methodology as described in Example 1 was utilized for primary VS and SC cultures. Cultures were treated with NF-κB inhibitors approximately after 2 weeks of culturing. HEI-193 cell line was a gift from Dr. Giovannini at the House Ear Institute (Hung et al., 2002a).
as §5, §1, §2

[6] = system: HEI-193 NF2 VS cell line; test: TUNEL cell death assay in HEI-193 cells; assay type: cell-based, human; details: 48 hours
Method: as §7, §8, §5, §1, §2

[7] = system: cochlear explant cultures (hair cells and neurites); test: Murine cochlear explant culture, hair cell, neurite and fiber damage counts; assay type: cell-based, CBA/CaJ mice; details: 100 ng/mL FGF2 pre-application plus 1 mM gentamicin, 48 hours total
Text: To develop an animal model to study hearing loss due to VS, cochlear explant cultures were established from postnatal CBA/CaJ mice aged P3-P5 (Jackson Laboratory, ME). Briefly, after decapitating the mouse, temporal bones were dissected from the skull in Hank's Balanced Salt Solution (Life Technologies, NY). The otic capsule encasing the cochlea was dissected out from each temporal bone. The otic capsule was carefully stripped away and the spiral ligament was peeled away from the entire cochlea, starting from the base. The basal turn of cochlea was then isolated using the dissecting knife (Fine Science Tools, CA), discarding the apical turn hook region. The tectorial membrane and the Reissner's membrane were removed, leaving the organ of Corti intact with the spiral ganglion neuron region. This explant was cultured onto a 10 mm glass coverslip coated with CellTak (BD Biosciences, CA, #354241) in a 35 mm culture dish with 4 wells. Cells were cultured in 98% DMEM, 1% ampicillin and 1% N2 supplement.
To assess FGF2's otoprotective effect, cochlear explant cultures were treated with recombinant human FGF2±gentamicin. After culturing the explants overnight, media fortified with FGF2 (100 ng/mL) was applied. Twenty-four hours later media fortified with gentamicin (1 mM) and FGF2 (100 ng/mL) was applied. […] Cochlear explants were fixed after an additional 24 hours of treatment, with total time being 48 hours.
After treatment, the explants were fixed and stained with antibodies against myosin 7A (Myo7A, Proteus Biosciences, CA) and β-tubulin (Tuj1, Covance, MA) to identify hair cells (HCs) and neurons, respectively. The same immunofluorescence protocol as described in Example 1 was used, with the exceptions of omission of […] HCl incubation, usage of 5% NHS with 1% Triton-X for blocking solution and 1% NHS with 0.4% Triton-X solution for primary antibody incubation at room temperature (RT). Secondary antibodies (Alexa Flour 555 anti-mouse and Alexa Four 488 anti-rabbit) were purchased from Life Technologies. Cochlear explants were imaged using a Leica TCS SP5 Confocal microscope. Zoomed-in pictures for the region of organ of Corti, including neurites, were merged in a z-stack to obtain a z-axis projection image in the Leica software. The number of hair cells (HCs) and neurites were manually counted per 100 μm length along the cochlea, with 1-2 samplings per specimen.
The same general methodology for murine cochlear explant cultures as described in Example 5 was utilized. Cochlear explant cultures were established from P2-P3 mice. Importantly, instead of only culturing the basal turn, the apical turn was also isolated, providing two pieces per cochlea with a greater frequency range. After approximately 12 hours, the cochlear explant cultures were treated for 48 hours with tumor secretions diluted to half their concentration. The formulation was 46.5% tumor-conditioned DMEM, 46.5% plain DMEM, 5% FBS, 1% ampicillin and 1% N2 supplement. Cochlear explants were treated with control media in parallel, being 46.5% DMEM incubated without tumor, 46.5% plain DMEM, 5% FBS, 1% ampicillin and 1% N2 supplement. All reagents were purchased from Life Technologies, NY. Osmolality in the solutions was measured in samples using a vapor-pressure osmometer (standardized with 290 mOsm/kg of 0.1567M sodium chloride solution) before applying them onto cochlear explants. Extra formulation for each VS secretion was made to be tested on Milliplex arrays and ELISA. Milliplex array, containing FGF2, VEGF-A and HGF beads (Millipore) and human TNFα ELISA (R&D Systems) were conducted as directed by the manufacturer on VS secretions prior to being applied onto the cochlear explant cultures.
Cochlear explants were fixed 48 hours after treatment and the same methodology for VS secretion application as described in Example 5 was utilized. […]

Nc1ccc(O)c(C(=O)O)c1 [5-ASA, 5-aminosalicylic acid]
proliferation, of the NT cells ([1]; 5 mM): 55%
proliferation, of the NT cells ([1]; 10 mM): 54.8±16.5%
cell death rate ([2]; 5 mM): 5.6±3.2%
proliferation, of the NT cells ([3]; 5 mM): 107.8±22.4%
proliferation, of the NT cells ([3]; 10 mM): 109.7±26.7%

Cc1ccc(S(=O)(=O)/C=C/C#N)cc1 [BAY11, BAY11-7082]
proliferation, of the non-treated cells ([1]; 1 μM): 54.7±22.8%
proliferation, of the non-treated cells ([1]; 5 μM): 14%
proliferation, of the non-treated cells ([1]; 5 μM, listed as BAY 11): 14.3±9.7%
effective therapeutic window to target VS cells ([1]; from primary VS and SC culture results combined): around 5 μM
cell death rate ([2]; 1 μM): 36±13%
cell death rate ([2]; 5 μM): 47±12%
normalized proliferation rate ([3]; 1 μM): 165.2±125.1%
normalized proliferation rate ([3]; 5 μM): 133.2±101.1%
normalized proliferation rate, of the NT cells ([3]; 1 mM): 130.2±65.6%
apoptosis / cell death rate ([4]; 1 μM): 1.0±0.7%
apoptosis / cell death rate ([4]; 5 μM): 0.7±0.7%
normalized proliferation rate ([5]; 10 μM): 65.6±24.6%
normalized proliferation rate ([5]; 100 μM): 9.1±4.9%
normalized proliferation rate [5]: 4.3±3.3%
higher concentration needed to reduce proliferation and survival than in primary VS cells ([5]; NF2 VS cell line versus primary VS cells): ~10 fold
cell death rate ([6]; 1 μM): 1.3±0.5%
cell death rate ([6]; 5 μM): 1.9±1.2%
cell death rate ([6]; 10 μM): 1.1±1.1%
cell death rate ([6]; 100 μM): 58.8±21.5%
cell death rate [6]: 55.3±16.9%

Cc1[nH]c(/C=C2\C(=O)Nc3ccc(S(=O)(=O)N(C)c4cccc(Cl)c4)cc32)c(C)c1C(=O)N1CCN(C)CC1 [SU11274]
proliferation, of VS cells treated with DMSO only ([1]; 2 μM, 12 hours then BrdU 20 hours): 22.4±11.7%

FGF2: recombinant human FGF2
number of neurites per 100 μm [7]: 13.7±5.5 per 100 μm
total number of HCs per 100 μm length [7]: 15.0±4.6 per 100 μm
